Entries after “also recorded” stand apart in the source; their conditions may differ. Where two headings read alike, the source gives them in different places.
Experiments:
[1] = tested on: T cell proliferation in mouse spleen cell mixed lymphocyte cultures; assay: Mixed Lymphocyte Reaction (MLR) assay; assay type: cell-based, mouse (Balb/c responder, C57B1/6 stimulator)
From the text: The pharmacologic assays performed to determine the immunomodulatory effects of the experimental compounds in vitro include the Mixed Lymphocyte Reaction (MLR) and the ConA blastogenesis assay. These assays were used to determine the inhibitory effects of the compounds of the invention on T lymphocyte activation and proliferation. Since inflammation at the cellular level is characterized by T lymphocyte recruitment, activation and proliferation, these assays are appropriate to use as screens for novel compounds having therapeutic potential in the treatment of disorders in which inflammatory mechanisms are involved.
The MLR is a classical assay used to measure T cell function by studying the proliferative response of T cells which are activated in vitro by genetically disparate stimulator cells. This is accomplished by co-culturing spleen cells from two different strains of mice. Splenic T cell proliferation occurs as a result of cellular activation signals generated by the ongoing cellular interactions.
Balb/c mice were euthanised by cervical dislocation and their spleens removed. Single cell suspensions of the spleens were prepared in culture medium (hepes buffered RPMI-1640 supplemented with 10% fetal calf serum, 2mM glutamine, 500 units penicillin/ streptomycin, and 4×10^-5 M 2-mercaptoethanol) using a Teflon pestle. The cells were centrifuged at 1500 rpm and the pellets resuspended in ACT (0.15M tris, 0.14M ammonium chloride, pH 7.2) in order to lyse the red blood cells. After a 5 minute incubation in a 37 C. waterbath, the cells were resuspended in culture medium and counted. C57B1/6 spleen cells which were used as stimulator cells, were also prepared by this method. The stimulator cells were treated with 100 ug/ml of mitomycin c for 1 hour at 37 C. (to inhibit stimulatory cell proliferation) and were then washed 5 times in culture medium. The proliferative responses were measured by culturing 2.5×10^5 responder cells with 5×10^5 stimulatory cells in 96 well microtiter plates in the presence or absence of various doses of test compounds or vehicle (DMSO). Syngeneic control cultures using mitomycin c treated Balb/c spleen cells as stimulator cells were also run. All cultures were run in triplicate.
Solutions of compounds of the present invention in DMSO were prepared at a stock concentration of 120 Mm. Dilutions were made in culture medium to the following concentrations: 3, 10, 30, 100, and 300 uM. The vehicle (DMSO) was used as a negative control.
After incubation of for 5 days at 37 C. with 5% CO2, the amount of cell proliferation was measured by adding 20 ul of MTT (3-[4,5-dimethylthiazol-2-yl]-2,5diphenyl-tetrazolium bromide) (10 mg/ml in phosphate buffered saline) to each well. Plates were incubated for 4 hours at 37 C., after which 180 ul of 10% sodium dodecyl sulphate in phosphate buffered saline was added. After an overnight incubation, the optical density (OD) of each well was read on a Molecular Devices microplate reader at 570-650 nm. The results were determined by calculating the difference between the means of the allogeneic cultures and the means of the syngenic cultures for each test article concentration. Differences of the test article groups were compared to the control group and the percent change from the control was determined.

[2] = tested on: T lymphocytes (normal mouse spleen cells) stimulated with ConA; assay: Mouse Spleen Cell ConA Blastogenesis Assay; assay type: cell-based, mouse (C57Bl/6); conditions: for inhibition at 0.01 µg/mL / inhibition at 0.1 µg/mL / inhibition at 1 µg/mL / inhibition at 2.5 µg/mL / inhibition at 10 µg/mL / inhibition at 25 µg/mL / inhibition at 100 µg/mL / inhibition at 0.001 µg/mL: Mus musculus, T-lymphocyte
From the text: It is well known that several plant lectins, when cultured in vitro with lymphocytes, stimulate cellular activation and proliferation. Concanavolin, (ConA) selectively stimulates the blastogenic response of T lymphocytes.
Six to 8 week old male C57Bl/6 mice were purchased from Harlan Sprague Dawley (Indianapolis, Ind.).
Spleens were removed and were homogenized to obtain a single cell suspension. Erythrocytes were lysed by hypotonic shock. Upon determination of the viability and concentration of the lymphoid cells, they were adjusted to 4×10^6 cells/ml in culture medium (RPMI-1640) supplemented with 10% fetal bovine serum; 100 ug/ml streptomycin; 100 U/ml penicillin, 0.2M hepes buffer; 5×10^-5 M 2-mercaptoethanol and 2 mM glutamine). seeded into microtiter plate wells at 2×10^5 cells/0.050 ml/well. To these cultures were added various doses of experimental compounds and ConA at a final concentration of 4 or 1 ug/ml. Control cultures consisted of cells, ConA and culture medium containing the vehicle, DMSO only. […] For the testing of the methyl 1,3-O-isopropylidene-6-O-n-heptyl-α-D-fructofuranoside compound indomethacin and NDGA were used as controls. All cultures were run in triplicate.
Solutions of compounds of the invention in DMSO were prepared and dilutions were made in culture medium. Assay concentrations were either: 1, 2.5, 10, 25, 100, 300 and 750 ug/ml or 0.001, 0.01, 0.1, 1, 2.5, 10, 25 and 100 ug/ml.
Cultures were incubated for 3 days at 37° C. in a humidified atmosphere of 5% of CO2 in air. For the last 18 hours of culture, 1 uCi of ^3 H-thymidine was also incubated in each well. The cells were precipitated by a multi-channel harvester. The amount of ^3 H-thymidine incorporated by the cultures, as a measure of cell proliferation, was measured in a liquid scintillation counter. The amount of radioactive incorporation is proportional to the amount of cellular proliferation in individual wells. The students T test was used to determine the significance of the difference between experimental and control values.

[3] = ConA 1 ug/ml, 0.01 ug/ml, read-out: % Change from Control (Table II)
[4] = ConA 1 ug/ml, compound 0.01 ug/ml, read-out: % change from control, ConA blastogenic response
[5] = ConA 1 ug/ml, compound 0.1 ug/ml, read-out: % change from control, ConA blastogenic response
[6] = ConA 1 ug/ml, compound 1 ug/ml, read-out: % change from control, ConA blastogenic response
[7] = ConA 1 ug/ml, compound 2.5 ug/ml, read-out: % change from control, ConA blastogenic response
[8] = ConA 1 ug/ml, compound 10 ug/ml, read-out: % change from control, ConA blastogenic response
[9] = ConA 1 ug/ml, compound 25 ug/ml, read-out: % change from control, ConA blastogenic response
[10] = ConA 1 ug/ml, compound 100 ug/ml, read-out: % change from control, ConA blastogenic response
[11] = ConA 4 ug/ml, 0.01 ug/ml, read-out: % Change from Control (Table II)
[12] = ConA 4 ug/ml, compound 0.01 ug/ml, read-out: % change from control, ConA blastogenic response
[13] = ConA 4 ug/ml, compound 0.1 ug/ml, read-out: % change from control, ConA blastogenic response
[14] = ConA 4 ug/ml, compound 1 ug/ml, read-out: % change from control, ConA blastogenic response
[15] = ConA 4 ug/ml, compound 2.5 ug/ml, read-out: % change from control, ConA blastogenic response
[16] = ConA 4 ug/ml, compound 10 ug/ml, read-out: % change from control, ConA blastogenic response
[17] = ConA 4 ug/ml, compound 25 ug/ml, read-out: % change from control, ConA blastogenic response
[18] = ConA 4 ug/ml, compound 100 ug/ml, read-out: % change from control, ConA blastogenic response

SMILES | inhibition at 0.01 µg/mL [2, 3] [%] | inhibition at 0.01 µg/mL [2, 4] [%] | inhibition at 0.1 µg/mL [2, 5] [%] | inhibition at 1 µg/mL [2, 6] [%] | inhibition at 2.5 µg/mL [2, 7] [%] | inhibition at 10 µg/mL [2, 8] [%] | inhibition at 25 µg/mL [2, 9] [%] | inhibition at 100 µg/mL [2, 10] [%] | inhibition at 0.01 µg/mL [2, 11] [%] | inhibition at 0.01 µg/mL [2, 12] [%] | inhibition at 0.1 µg/mL [2, 13] [%] | inhibition at 1 µg/mL [2, 14] [%] | inhibition at 2.5 µg/mL [2, 15] [%] | inhibition at 10 µg/mL [2, 16] [%] | inhibition at 25 µg/mL [2, 17] [%] | inhibition at 100 µg/mL [2, 18] [%] | further results
CCCCCCCCCCCCCCCOCC(O)C1OC2OC(C)(C)OC2C1O [IIId, 1,2-O-Isopropylidene-6-O-pentadecyl-α-D-glucofuranose] |  |  |  |  |  |  |  |  |  |  |  |  |  |  |  |  | Mean O.D. Allogenic ([1]; 3 um): 0.210 O.D.; Mean O.D. Syngeneic ([1]; 3 um): 0.138 O.D.; Mean O.D. Allogenic ([1]; 10 um): 0.197 O.D.; Mean O.D. Syngeneic ([1]; 10 um): 0.128 O.D.; Mean O.D. Allogenic ([1]; 30 um): 0.104 O.D.; Mean O.D. Syngeneic ([1]; 30 um): 0.032 O.D.; Mean O.D. Allogenic ([1]; 100 um): 0.021 O.D.; Mean O.D. Syngeneic ([1]; 100 um): 0.019 O.D.; Mean O.D. Allogenic ([1]; 300 um): 0.015 O.D.; inhibition at 3 µM ([1]; Mus musculus, Lymphocyte, 3 um, read-out: % Change From Control, MLR): 13%; inhibition at 10 µM ([1]; Mus musculus, Lymphocyte, 10 um, read-out: % Change From Control, MLR): 17%; inhibition at 30 µM ([1]; Mus musculus, Lymphocyte, 30 um, read-out: % Change From Control, MLR): 13%; inhibition at 100 µM ([1]; Mus musculus, Lymphocyte, 100 um, read-out: % Change From Control, MLR): 98%
CCCCCCCC(=O)OC[C@H]1O[C@@]2(OC)COC(C)(C)O[C@H]2[C@@H]1O [Ii, methyl 1,3-O-isopropylidene-6-O-octanoyl-α-D-fructofuranoside] | -11 | -7 | -21 | -52 | -62 | -13 | -41 | 27 | -28 | -37 | -28 | -17 | -22 | 1 | -7 | 47 | effect on ConA T lymphocyte proliferation in words [2]: less potent inhibitor of the mitogen induced T lymphocyte proliferative response; also recorded: significant inhibition observed at all dose levels on the 1 ug/ml ConA cultures
CCCCCCCC(=O)OC[C@H]1O[C@@]2(OC)COC(C)(C)O[C@H]2[C@@H]1OC(=O)CCCCCCC [Ij, methyl 1,3-O-isopropylidene-4,6-di-O-octanoyl-α-D-fructofuranoside] | 60 | 100 | 100 | 100 | 100 | 100 | 100 | 100 | 3 | -42 | 12 | -9 | 15 | 43 | 79 | 92 | 
CCCCCCCO[C@@H]1[C@@H](CO)O[C@@]2(CO)OC(C)(C)O[C@@H]12 [Ik, 2,3-O-isopropylidene-4-O-heptyl-β-D-fructofuranose] |  | -8 | 3 | 19 | 21 | 79 | 99 | 100 |  | -14 | 8 | 35 | 51 | 91 | 99 | 100 | Blastogenic response of normal spleen cells to Con-A ([2]; ConA 1 ug/ml, compound 0.001 ug/ml): 139.5 ± 4.0 × 10^-3 cpm; Blastogenic response of normal spleen cells to Con-A ([2]; ConA 1 ug/ml, compound 0.01 ug/ml): 146.4 ± 5.2 × 10^-3 cpm; Blastogenic response of normal spleen cells to Con-A ([2]; ConA 1 ug/ml, compound 0.1 ug/ml): 145 ± 6.9 × 10^-3 cpm; Blastogenic response of normal spleen cells to Con-A ([2]; ConA 1 ug/ml, compound 1 ug/ml): 119.1 ± 3.3 × 10^-3 cpm; Blastogenic response of normal spleen cells to Con-A ([2]; ConA 1 ug/ml, compound 2.5 ug/ml): 98.5 ± 7.0 × 10^-3 cpm; Blastogenic response of normal spleen cells to Con-A ([2]; ConA 1 ug/ml, compound 25 ug/ml): 1.4 ± 0.2 × 10^-3 cpm; Blastogenic response of normal spleen cells to Con-A ([2]; ConA 1 ug/ml, compound 100 ug/ml): 0.3 ± 0.1 × 10^-3 cpm; Blastogenic response of normal spleen cells to Con-A ([2]; ConA 4 ug/ml, compound 0.001 ug/ml): 167.1 ± 16.7 × 10^-3 cpm; Blastogenic response of normal spleen cells to Con-A ([2]; ConA 4 ug/ml, compound 0.01 ug/ml): 212.6 ± 16.3 × 10^-3 cpm; Blastogenic response of normal spleen cells to Con-A ([2]; ConA 4 ug/ml, compound 0.1 ug/ml): 183.6 ± 10.4 × 10^-3 cpm; Blastogenic response of normal spleen cells to Con-A ([2]; ConA 4 ug/ml, compound 1 ug/ml): 135.3 ± 10.8 × 10^-3 cpm; Blastogenic response of normal spleen cells to Con-A ([2]; ConA 4 ug/ml, compound 2.5 ug/ml): 90.4 ± 7.8 × 10^-3 cpm; Blastogenic response of normal spleen cells to Con-A ([2]; ConA 4 ug/ml, compound 10 ug/ml): 18.4 ± 0.2 × 10^-3 cpm; Blastogenic response of normal spleen cells to Con-A ([2]; ConA 4 ug/ml, compound 25 ug/ml): 2.5 ± 0.4 × 10^-3 cpm; Blastogenic response of normal spleen cells to Con-A ([2]; ConA 4 ug/ml, compound 100 ug/ml): 0.4 ± 0.1 × 10^-3 cpm; inhibition at 0.001 µg/mL ([2]; ConA 1 ug/ml, compound 0.001 ug/ml, read-out: % change from control, ConA blastogenic response): -11%; inhibition at 0.001 µg/mL ([2]; ConA 4 ug/ml, compound 0.001 ug/ml, read-out: % change from control, ConA blastogenic response): 8%

Reference: patent US5298494A, “Monosaccharides having anti-proliferation and anti-inflammatory activity, compositions and uses thereof” (Greenwich Pharmaceuticals Incorporated, priority 1993, dated 1994)
